Each structure is given as a SMILES string.

A short description of the data set: Human plasma protein binding (equilibrium dialysis). It is filed as in vitro ADME. The conditions noted are these: dialysis 18 hours.
Protocol: The automated equilibrium dialysis assay in human plasma uses the RED (Rapid Equilibrium Dialysis) Device and sample handling. The assay generally runs over two to three days including delivery of results. After dialysis for 18 hours, plasma and buffer samples are prepared for analysis by liquid chromatography and mass spectrometry. Samples are generally tested in singlicates and quantified by LC/MSMS by using a 7-point calibration curve in plasma. The compounds are pooled together in plasma pools up to 10 compounds. Three reference compounds are used in each run, Propranolol, Metoprolol and Warfarin. Warfarin is used as a control in each pool and Propranolol and Metoprolol are placed randomly in each run. An in-house Excel macro is used for preparation of files for the robot and the mass spectrometer and is also used for the calculations of fraction unbound (fu %) in plasma.
Take `C[C@@H]1Cc2c([nH]c3ccccc23)[C@@H](c2c(F)ccc(OCCN(C)CCCF)c2C(F)F)N1C[C@H](C)C(=O)O` [Example 148, (S)-3-((1R,3R)-1-(2-(difluoromethyl)-6-fluoro-3-(2-((3-fluoropropyl)(methyl)amino)ethoxy)phenyl)-3-methyl-1,3,4,9-tetrahydro-2H-pyrido[3,4-b]indol-2-yl)-2-methylpropanoic acid]: the “Human plasma protein binding (% free)” value was found to be 10 % free. Next, `CC(CN1[C@H](c2c(Cl)ccc(OCCNCCCF)c2Cl)c2[nH]c3ccc(F)cc3c2C[C@H]1C)C(=O)O` (single isomer, unassigned) [Example 130]: 7.8 % free; `C[C@@H]1Cc2c([nH]c3ccccc23)[C@@H](c2cc(OCCNCCCF)ccc2C#N)N1CC(F)(F)F` [Example 23, 4-(2-((3-fluoropropyl)amino)ethoxy)-2-((1R,3R)-3-methyl-2-(2,2,2-trifluoroethyl)-2,3,4,9-tetrahydro-1H-pyrido[3,4-b]indol-1-yl)benzonitrile]: 3.7 % free.

On to `Cc1c(OCCNCCCF)ccc(F)c1[C@@H]1c2[nH]c3ccccc3c2C[C@@H](C)N1CCC#N` [Example 87, 3-((1R,3R)-1-(6-fluoro-3-(2-((3-fluoropropyl)amino)ethoxy)-2-methylphenyl)-3-methyl-1,3,4,9-tetrahydro-2H-pyrido[3,4-b]indol-2-yl)propanenitrile], for which the “Human plasma protein binding (% free)” value worked out at 1.6 % free.

Take `COc1nnc(OCCNCCCF)cc1[C@@H]1c2[nH]c3ccccc3c2C[C@@H](C)N1CC(F)(F)F` [Example 112, 3-fluoro-N-(2-((6-methoxy-5-((1R,3R)-3-methyl-2-(2,2,2-trifluoroethyl)-2,3,4,9-tetrahydro-1H-pyrido[3,4-b]indol-1-yl)pyridazin-3-yl)oxy)ethyl)propan-1-amine]: the “Human plasma protein binding (% free)” value is reported as 1.5 % free. With `C[C@@H]1Cc2c([nH]c3cccc(F)c23)[C@@H](c2c(F)ccc(OCCNCCCF)c2F)N1CC(F)(F)CO` [Example 62, 3-((1R,3R)-1-(2,6-difluoro-3-(2-((3-fluoropropyl)amino)ethoxy)phenyl)-5-fluoro-3-methyl-1,3,4,9-tetrahydro-2H-pyrido[3,4-b]indol-2-yl)-2,2-difluoropropan-1-ol], the “Human plasma protein binding (% free)” value came out at 1.2 % free. Take `COc1ccc(OCCNCCCF)cc1[C@@H]1c2[nH]c3ccccc3c2C[C@@H](C)N1CC(F)(F)F` [Example 7, 3-Fluoro-N-(2-(4-methoxy-3-((1R,3R)-3-methyl-2-(2,2,2-trifluoroethyl)-2,3,4,9-tetrahydro-1H-pyrido[3,4-b]indol-1-yl)phenoxy)ethyl)propan-1-amine]: the “Human plasma protein binding (% free)” value worked out at 1.5 % free.

With `C[C@@H]1Cc2c([nH]c3ccccc23)[C@@H](c2c(F)cnc(OCCNCCCF)c2Cl)N1CC(F)(F)CO` [Example 111, 3-((1R,3R)-1-(3-chloro-5-fluoro-2-(2-((3-fluoropropyl)amino)ethoxy)pyridin-4-yl)-3-methyl-1,3,4,9-tetrahydro-2H-pyrido[3,4-b]indol-2-yl)-2,2-difluoropropan-1-ol], the “Human plasma protein binding (% free)” value turned out to be 1.4 % free. Next, `COc1ccc(OCCNCCCF)c(F)c1[C@@H]1c2[nH]c3ccccc3c2C[C@@H](C)N1CC(F)F` [Example 82, N-(2-(3-((1R,3R)-2-(2,2-difluoroethyl)-3-methyl-2,3,4,9-tetrahydro-1H-pyrido[3,4-b]indol-1-yl)-2-fluoro-4-methoxyphenoxy)ethyl)-3-fluoropropan-1-amine]: 1.9 % free; `COc1cc(F)c(NCCNCCCF)cc1[C@@H]1c2[nH]c3ccccc3c2C[C@@H](C)N1CC(F)(F)F` [Example 91, N1-(2-fluoro-4-methoxy-5-((1R,3R)-3-methyl-2-(2,2,2-trifluoroethyl)-2,3,4,9-tetrahydro-1H-pyrido[3,4-b]indol-1-yl)phenyl)-N2-(3-fluoropropyl)ethane-1,2-diamine]: 0.93 % free.

`C[C@@H]1Cc2c([nH]c3ccccc23)[C@@H](c2ccnc(OCCNCCCF)c2Cl)N1CC(F)(F)CO` [Example 104, 3-((1R,3R)-1-(3-chloro-2-(2-((3-fluoropropyl)amino)ethoxy)pyridin-4-yl)-3-methyl-1,3,4,9-tetrahydro-2H-pyrido[3,4-b]indol-2-yl)-2,2-difluoropropan-1-ol]: the “Human plasma protein binding (% free)” value worked out at 2.8 % free. Turning to `C[C@@H]1Cc2c([nH]c3ccc(F)cc23)[C@@H](c2c(F)cnc(OCCNCCCF)c2F)N1CC(F)(F)CO` [Example 65, 3-((1R,3R)-1-(3,5-difluoro-2-(2-((3-fluoropropyl)amino)ethoxy)pyridin-4-yl)-6-fluoro-3-methyl-1,3,4,9-tetrahydro-2H-pyrido[3,4-b]indol-2-yl)-2,2-difluoropropan-1-ol], the “Human plasma protein binding (% free)” value is 1.9 % free.

`Cc1c(OCCN(C)CCCF)ncc(F)c1[C@@H]1c2[nH]c3ccccc3c2C[C@@H](C)N1C(C)CC(=O)O` (single isomer, unassigned) [Example 158]: the “Human plasma protein binding (% free)” value was found to be 21 % free. As to `COc1c(F)cc(OCCNCCCF)c(F)c1[C@@H]1c2[nH]c3ccccc3c2C[C@@H](C)N1CC(F)(F)F` [Example 29, N-(2-(2,5-difluoro-4-methoxy-3-((1R,3R)-3-methyl-2-(2,2,2-trifluoroethyl)-2,3,4,9-tetrahydro-1H-pyrido[3,4-b]indol-1-yl)phenoxy)ethyl)-3-fluoropropan-1-amine], the “Human plasma protein binding (% free)” value is <3.2 % free. Take `C[C@@H]1Cc2c([nH]c3ccccc23)[C@@H](c2c(F)cnc(OCCNCCCF)c2F)N1CC1(F)CC1` [Example 108, N-(2-((3,5-difluoro-4-((1R,3R)-2-((1-fluorocyclopropyl)methyl)-3-methyl-2,3,4,9-tetrahydro-1H-pyrido[3,4-b]indol-1-yl)pyridin-2-yl)oxy)ethyl)-3-fluoropropan-1-amine]: the “Human plasma protein binding (% free)” value is listed as 2.3 % free. Regarding `CC(CN1[C@H](c2c(Cl)ccc(OCCNCCCF)c2Cl)c2[nH]c3ccc(F)cc3c2C[C@H]1C)C(=O)O` (single isomer, unassigned) [Example 129], the “Human plasma protein binding (% free)” value is recorded as 23 % free. On to `Cc1c(OCCNCCCF)ccc(F)c1[C@@H]1c2[nH]c3ccccc3c2C[C@@H](C)N1CC(F)(F)C(=O)O` [Example 118, 2,2-difluoro-3-((1R,3R)-1-(6-fluoro-3-(2-((3-fluoropropyl)amino)ethoxy)-2-methylphenyl)-3-methyl-1,3,4,9-tetrahydro-2H-pyrido[3,4-b]indol-2-yl)propanoic acid], for which the “Human plasma protein binding (% free)” value was 8.4 % free. The value for `Cc1c(NCCNCCCF)ccnc1[C@@H]1c2[nH]c3ccccc3c2C[C@@H](C)N1CC(F)(F)F` [Example 95, N1-(3-fluoropropyl)-N2-(3-methyl-2-((1S,3R)-3-methyl-2-(2,2,2-trifluoroethyl)-2,3,4,9-tetrahydro-1H-pyrido[3,4-b]indol-1-yl)pyridin-4-yl)ethane-1,2-diamine] was 4.6 % free; that for `Cc1c(OCCNCCCF)ccc(F)c1[C@@H]1c2[nH]c3ccccc3c2CC(C)(C)N1C[C@H](C)C(=O)O` [Example 134, (S)-3-((R)-1-(6-fluoro-3-(2-((3-fluoropropyl)amino)ethoxy)-2-methylphenyl)-3,3-dimethyl-1,3,4,9-tetrahydro-2H-pyrido[3,4-b]indol-2-yl)-2-methylpropanoic acid] was 36 % free. As for `Cc1c(OCCNCCCF)cncc1[C@@H]1c2[nH]c3ccccc3c2C[C@@H](C)N1CC(F)(F)F` [Example 38, 3-fluoro-N-(2-((4-methyl-5-((1R,3R)-3-methyl-2-(2,2,2-trifluoroethyl)-2,3,4,9-tetrahydro-1H-pyrido[3,4-b]indol-1-yl)pyridin-3-yl)oxy)ethyl)propan-1-amine], the “Human plasma protein binding (% free)” value amounted to 0.91 % free. Next, `COc1ccc(NCCNCCCF)nc1[C@@H]1c2[nH]c3ccccc3c2C[C@@H](C)N1CC(F)(F)F` [Example 43, N1-(3-fluoropropyl)-N2-(5-methoxy-6-((1S,3R)-3-methyl-2-(2,2,2-trifluoroethyl)-2,3,4,9-tetrahydro-1H-pyrido[3,4-b]indol-1-yl)pyridin-2-yl)ethane-1,2-diamine]: 2.8 % free.

For the compound `C[C@@H]1Cc2c([nH]c3ccccc23)[C@@H](c2c(Cl)ccc(OCCNCCCF)c2F)N1CC(F)(F)F` [Example 78, N-(2-(4-chloro-2-fluoro-3-((1R,3R)-3-methyl-2-(2,2,2-trifluoroethyl)-2,3,4,9-tetrahydro-1H-pyrido[3,4-b]indol-1-yl)phenoxy)ethyl)-3-fluoropropan-1-amine], the “Human plasma protein binding (% free)” value came out at 0.21 % free. For `Cc1c([C@@H]2c3[nH]c4ccccc4c3C[C@@H](C)N2CC(F)(F)CO)ccnc1OCCNCCCF` [Example 103, 2,2-difluoro-3-((1R,3R)-1-(2-(2-((3-fluoropropyl)amino)ethoxy)-3-methylpyridin-4-yl)-3-methyl-1,3,4,9-tetrahydro-2H-pyrido[3,4-b]indol-2-yl)propan-1-ol], the “Human plasma protein binding (% free)” value came to 2 % free. Consider `COc1ccc(O[C@H](C)CNCCCF)cc1[C@@H]1c2[nH]c3ccccc3c2C[C@@H](C)N1CC(F)(F)CO` [Example 47, 2,2-difluoro-3-((1R,3R)-1-(5-(((R)-1-((3-fluoropropyl)amino)propan-2-yl)oxy)-2-methoxyphenyl)-3-methyl-1,3,4,9-tetrahydro-2H-pyrido[3,4-b]indol-2-yl)propan-1-ol], for which the “Human plasma protein binding (% free)” value was 6.1 % free. As to `COc1ccc(OCCNCCCF)nc1[C@@H]1c2[nH]c3ccccc3c2C[C@@H](C)N1CC(F)(F)F` [Example 56, 3-fluoro-N-(2-((5-methoxy-6-((1S,3R)-3-methyl-2-(2,2,2-trifluoroethyl)-2,3,4,9-tetrahydro-1H-pyrido[3,4-b]indol-1-yl)pyridin-2-yl)oxy)ethyl)propan-1-amine], the “Human plasma protein binding (% free)” value worked out at 4.6 % free.

Consider `Cc1ccc(OCCNCCCF)nc1[C@@H]1c2[nH]c3ccccc3c2C[C@@H](C)N1CC(F)(F)F` [Example 105, 3-fluoro-N-(2-((5-methyl-6-((1S,3R)-3-methyl-2-(2,2,2-trifluoroethyl)-2,3,4,9-tetrahydro-1H-pyrido[3,4-b]indol-1-yl)pyridin-2-yl)oxy)ethyl)propan-1-amine], for which the “Human plasma protein binding (% free)” value worked out at 1 % free.
